Assays:
hNav1.1 (SCN1A) = hNav1.1 (SCN1A) (Homo sapiens, UniProt P35498); assay: Use-dependent inhibition of the CNS Nav1.1 sodium channel; assay type: cell-based; settings: use-dependent block, 25 Hz, pulse 20, read-out: Nav1.1 UDB 25 Hz 10 uM
Outline: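 HEK-293 cells stably expressing WT hNav1.1, automated whole-cell patch clamp at 23-25 °C with CsF-based internal and NaCl external solutions, pH 7.35. Compound applied twice, 200 s equilibration; block measured at pulse 20 of a 25 Hz train (0 mV, 20 ms) from −120 mV, as mean % inhibition versus compound-free.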

hNaV1.2 (SCN2A) = molecular target: T1, hNaV1.2 (SCN2A) (Homo sapiens, UniProt Q99250); assay: Use-dependent inhibition of the CNS Nav1.2 sodium channel; assay type: cell-based; settings: use-dependent block, 25 Hz, pulse 20, read-out: Nav1.2 UDB 25 Hz 10 uM
T1 construct: expressed in transfected cells
Outline: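 Use-dependent block of human Nav1.2 was measured by automated whole-cell patch clamp (QPatch) in HEK-293 cells stably expressing hNaV1.2 with SCN1B and SCN2B. From a holding potential of −120 mV, a train of 20 pulses to 0 mV (20 ms, 25 Hz) was applied. Peak current at pulse 20 was normalized to the first pulse, and percent inhibition was calculated relative to compound-free recordings.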

T1 sequence (Q99250 whole entry): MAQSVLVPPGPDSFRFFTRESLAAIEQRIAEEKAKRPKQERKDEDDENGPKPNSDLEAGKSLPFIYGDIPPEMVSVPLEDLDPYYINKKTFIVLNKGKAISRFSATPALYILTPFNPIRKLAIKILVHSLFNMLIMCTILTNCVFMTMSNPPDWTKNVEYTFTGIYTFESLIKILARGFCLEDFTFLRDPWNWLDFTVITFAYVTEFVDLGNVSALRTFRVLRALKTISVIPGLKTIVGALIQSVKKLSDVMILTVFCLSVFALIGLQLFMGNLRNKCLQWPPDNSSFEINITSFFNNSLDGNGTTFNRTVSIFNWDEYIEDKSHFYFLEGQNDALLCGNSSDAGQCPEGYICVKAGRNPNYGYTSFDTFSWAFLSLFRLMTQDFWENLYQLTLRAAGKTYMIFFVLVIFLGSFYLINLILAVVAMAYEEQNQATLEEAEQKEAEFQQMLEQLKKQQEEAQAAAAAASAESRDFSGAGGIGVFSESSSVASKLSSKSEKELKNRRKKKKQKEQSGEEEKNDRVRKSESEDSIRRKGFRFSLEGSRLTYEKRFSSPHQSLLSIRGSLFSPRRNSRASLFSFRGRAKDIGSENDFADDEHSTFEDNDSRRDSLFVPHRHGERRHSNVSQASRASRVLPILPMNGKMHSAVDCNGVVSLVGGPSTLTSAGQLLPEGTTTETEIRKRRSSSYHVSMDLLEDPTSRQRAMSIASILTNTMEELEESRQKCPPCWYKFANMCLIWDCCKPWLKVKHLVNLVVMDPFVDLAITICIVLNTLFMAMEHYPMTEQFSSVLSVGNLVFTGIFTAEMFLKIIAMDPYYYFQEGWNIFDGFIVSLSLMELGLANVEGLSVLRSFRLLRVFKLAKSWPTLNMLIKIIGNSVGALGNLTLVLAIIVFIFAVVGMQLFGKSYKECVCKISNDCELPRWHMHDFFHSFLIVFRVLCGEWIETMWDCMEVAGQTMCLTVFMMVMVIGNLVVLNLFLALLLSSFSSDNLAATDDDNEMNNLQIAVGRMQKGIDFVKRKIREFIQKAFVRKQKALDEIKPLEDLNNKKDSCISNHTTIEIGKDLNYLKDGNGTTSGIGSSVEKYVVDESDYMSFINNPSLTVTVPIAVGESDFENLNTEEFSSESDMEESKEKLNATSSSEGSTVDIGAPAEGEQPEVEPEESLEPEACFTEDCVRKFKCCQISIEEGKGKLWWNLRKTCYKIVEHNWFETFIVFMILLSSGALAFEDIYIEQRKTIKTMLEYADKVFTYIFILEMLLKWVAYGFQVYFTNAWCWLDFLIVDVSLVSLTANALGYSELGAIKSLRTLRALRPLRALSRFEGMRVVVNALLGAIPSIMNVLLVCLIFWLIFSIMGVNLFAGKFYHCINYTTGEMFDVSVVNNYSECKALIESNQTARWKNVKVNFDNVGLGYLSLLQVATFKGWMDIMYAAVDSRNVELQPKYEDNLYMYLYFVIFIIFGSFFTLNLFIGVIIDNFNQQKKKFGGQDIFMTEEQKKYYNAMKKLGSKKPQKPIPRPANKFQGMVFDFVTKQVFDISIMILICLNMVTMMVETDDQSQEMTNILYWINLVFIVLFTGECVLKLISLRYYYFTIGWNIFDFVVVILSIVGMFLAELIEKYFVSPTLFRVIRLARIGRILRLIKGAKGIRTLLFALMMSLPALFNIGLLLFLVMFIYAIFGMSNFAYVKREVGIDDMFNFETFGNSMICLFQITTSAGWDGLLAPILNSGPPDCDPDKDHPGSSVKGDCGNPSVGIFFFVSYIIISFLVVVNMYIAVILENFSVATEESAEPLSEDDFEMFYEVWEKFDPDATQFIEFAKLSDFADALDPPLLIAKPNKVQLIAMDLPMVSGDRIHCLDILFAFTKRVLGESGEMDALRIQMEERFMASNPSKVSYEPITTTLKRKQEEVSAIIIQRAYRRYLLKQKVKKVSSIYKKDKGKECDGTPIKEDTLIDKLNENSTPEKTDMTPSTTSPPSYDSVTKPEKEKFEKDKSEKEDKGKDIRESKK
T1 sequence (Q07699 19-218 partner): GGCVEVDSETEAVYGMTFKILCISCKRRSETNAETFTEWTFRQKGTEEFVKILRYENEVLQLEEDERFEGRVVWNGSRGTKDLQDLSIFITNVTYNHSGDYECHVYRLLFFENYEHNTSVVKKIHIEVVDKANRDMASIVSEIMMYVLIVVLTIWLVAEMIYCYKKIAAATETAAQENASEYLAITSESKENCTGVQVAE
T1 sequence (O60939 30-215 partner): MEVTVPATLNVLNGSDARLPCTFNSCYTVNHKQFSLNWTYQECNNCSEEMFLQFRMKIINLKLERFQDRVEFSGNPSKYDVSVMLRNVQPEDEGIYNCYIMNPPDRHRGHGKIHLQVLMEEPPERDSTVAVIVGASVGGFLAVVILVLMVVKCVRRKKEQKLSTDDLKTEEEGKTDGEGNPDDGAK

Row | Structure (SMILES) | inhibition at 10 µM (hNav1.1 (SCN1A)) [%] | inhibition at 10 µM (hNaV1.2 (SCN2A)) [%]
1 | Fc1cc(-c2ccc(OC(F)(F)F)cc2)cc2c(OCc3ncccn3)noc12 [Example 17, 7-fluoro-3-(pyrimidin-2-ylmethoxy)-5-(4-(trifluoromethoxy)phenyl)benzo[d]isoxazole] | 5.9 | < 5
2 | Cc1cc(-c2cc(C)c3onc(OCc4ncccn4)c3c2)ccc1OC(F)(F)F [Example 18, 7-methyl-5-(3-methyl-4-(trifluoromethoxy)phenyl)-3-(pyrimidin-2-ylmethoxy)benzo[d]isoxazole] | < 5 | < 5
3 | COc1cc(-c2ccc(OC(F)(F)F)c(C)c2)cc2c(OCc3ncccn3)noc12 [Example 23, 7-methoxy-5-(3-methyl-4-(trifluoromethoxy)phenyl)-3-(pyrimidin-2-ylmethoxy)benzo[d]isoxazole] | < 5 | 9.9
4 | Cc1cc2onc(OCc3ncccn3)c2cc1-c1ccc(OC(F)(F)F)cc1 [Example 26, 6-methyl-3-(pyrimidin-2-ylmethoxy)-5-(4-(trifluoromethoxy)phenyl)benzo[d]isoxazole] | 58.6 | < 5
5 | Cc1cc(-c2cc3c(OCc4ncccn4)noc3cc2C)ccc1OC(F)(F)F [Example 27, 6-methyl-5-(3-methyl-4-(trifluoromethoxy)phenyl)-3-(pyrimidin-2-ylmethoxy)benzo[d]isoxazole] | < 5 | < 5
6 | Fc1cc2onc(OCc3ncccn3)c2cc1-c1ccc(OC(F)(F)F)cc1 [Example 31, 6-fluoro-3-(pyrimidin-2-ylmethoxy)-5-(4-(trifluoromethoxy)phenyl)benzo[d]isoxazole] | < 5 | < 5
7 | Fc1cc(C(F)(F)F)ccc1-c1cc2c(OCc3ncccn3)noc2cc1F [Example 33, 6-fluoro-5-(2-fluoro-4-(trifluoromethyl)phenyl)-3-(pyrimidin-2-ylmethoxy)benzo[d]isoxazole] | < 5 | 5.5
8 | Fc1cc2onc(OCc3ncccn3)c2cc1-c1ccc2c(c1)OC(F)(F)O2 [Example 35, 5-(2,2-difluorobenzo[d][1,3]dioxol-5-yl)-6-fluoro-3-(pyrimidin-2-ylmethoxy)benzo[d]isoxazole] | < 5 | < 5
9 | Cn1cc(COc2noc3ccc(-c4ccc(OC(F)(F)F)cc4)cc23)nn1 [Example 44] | 21.1 | 25.4
10 | FC(F)(F)Oc1ccc(-c2ccc3onc(OCc4cn[nH]c4)c3c2)cc1 [Example 45, 3-((1H-pyrazol-4-yl)methoxy)-5-(4-(trifluoromethoxy)phenyl)benzo[d]isoxazole] | 63.8 | 42.8
11 | CC(C)n1ccnc1COc1noc2ccc(-c3ccc(OC(F)(F)F)cc3)cc12 [Example 48, 3-((1-isopropyl-1H-imidazol-2-yl)methoxy)-5-(4-(trifluoromethoxy)phenyl)benzo[d]isoxazole] | 52.8 | 54.2
12 | CCn1cncc1COc1noc2ccc(-c3ccc(OC(F)(F)F)cc3)cc12 [Example 49, 3-((1-ethyl-1H-imidazol-5-yl)methoxy)-5-(4-(trifluoromethoxy)phenyl)benzo[d]isoxazole] | 56.4 | 49.9
13 | Cn1cncc1COc1noc2ccc(-c3ccc(OC(F)(F)F)cc3)cc12 [Example 50, 3-((1-methyl-1H-imidazol-5-yl)methoxy)-5-(4-(trifluoromethoxy)phenyl)benzo[d]isoxazole] | 49.2 | 27.3
14 | FC(F)(F)Oc1ccc(-c2ccc3onc(OCCn4cnnc4)c3c2)cc1 [Example 63, 3-(2-(4H-1,2,4-triazol-4-yl)ethoxy)-5-(4-(trifluoromethoxy)phenyl)benzo[d]isoxazole] | 77.6 | 68
15 | FC(F)(F)Oc1ccc(-c2ccc3onc(OCc4nccn4-c4ccccc4)c3c2)cc1 [Example 64, 3-((1-phenyl-1H-imidazol-2-yl)methoxy)-5-(4-(trifluoromethoxy)phenyl)benzo[d]isoxazole] | 33.2 | 34.7
16 | Cc1nc(C)n(CCOc2noc3ccc(-c4ccc(OC(F)(F)F)cc4)cc23)n1 [Example 76, 3-(2-(3,5-dimethyl-1H-1,2,4-triazol-1-yl)ethoxy)-5-(4-(trifluoromethoxy)phenyl)benzo[d]isoxazole] | 27.2 | 27.9
17 | CC(COc1noc2ccc(-c3ccc(OC(F)(F)F)cc3)cc12)n1cncn1 (stereo not shown) [Example 77, 3-(2-(1H-1,2,4-triazol-1-yl)propoxy)-5-(4-(trifluoromethoxy)phenyl)benzo[d]isoxazole] | 49.2 | 31.8
18 | FC(F)(F)Oc1ccc(-c2ccc3onc(OCCN4CCOCC4)c3c2)cc1 [Example 78, 3-(2-morpholinoethoxy)-5-(4-(trifluoromethoxy)phenyl)benzo[d]isoxazole] | 39.9 | 32.8
19 | Cc1nc(C)n(C(C)COc2noc3ccc(-c4ccc(OC(F)(F)F)cc4)cc23)n1 (stereo not shown) [Example 79, 3-(2-(3,5-dimethyl-1H-1,2,4-triazol-1-yl)propoxy)-5-(4-(trifluoromethoxy)phenyl)benzo[d]isoxazole] | 36.8 | 34
20 | O=C1CCCN1CCOc1noc2c(F)cc(-c3ccc(OC(F)(F)F)cc3)cc12 [Example 80, 1-(2-((7-fluoro-5-(4-(trifluoromethoxy)phenyl)benzo[d]isoxazol-3-yl)oxy)ethyl)pyrrolidin-2-one] | 19.8 | 17.5
21 | COc1ccnc(COc2noc3ccc(-c4ccc(OC(F)(F)F)cc4)cc23)c1 [Example 81, 3-((4-methoxypyridin-2-yl)methoxy)-5-(4-(trifluoromethoxy)phenyl)benzo[d]isoxazole] | < 5 | 21.8
22 | Cc1cc(-c2ccc(OC(F)(F)F)cc2)cc2c(OCCn3cncn3)noc12 [Example 89, 3-(2-(1H-1,2,4-triazol-1-yl)ethoxy)-7-methyl-5-(4-(trifluoromethoxy)phenyl)benzo[d]isoxazole] | 16.1 | 52
23 | Cc1cc(-c2ccc(OC(F)(F)F)cc2)cc2c(OCc3ncco3)noc12 [Example 91, 7-methyl-3-(oxazol-2-ylmethoxy)-5-(4-(trifluoromethoxy)phenyl)benzo[d]isoxazole] | 31.1 | 46.9
24 | CC1(COc2noc3ccc(-c4ccc(OC(F)(F)F)cc4)cc23)COC1 [Example 92, 3-((3-methyloxetan-3-yl)methoxy)-5-(4-(trifluoromethoxy)phenyl)benzo[d]isoxazole] | < 5 | < 5
25 | Cc1cccnc1COc1noc2ccc(-c3ccc(OC(F)(F)F)cc3)cc12 [Example 93, 3-((3-methylpyridin-2-yl)methoxy)-5-(4-(trifluoromethoxy)phenyl)benzo[d]isoxazole] | < 5 | < 5
26 | Cc1cccc(COc2noc3ccc(-c4ccc(OC(F)(F)F)cc4)cc23)n1 [Example 95, 3-((6-methylpyridin-2-yl)methoxy)-5-(4-(trifluoromethoxy)phenyl)benzo[d]isoxazole] | < 5 | < 5

— patent publication US9416115B2, “Fused heterocyclic compounds as ion channel modulators” (Gilead Sciences, Inc., priority 2013, dated 2016)
